Test results published in patent US20260364168A1, “USE OF PROTEIN KINASE C (PKC) ACTIVATING COMPOUNDS AS AN ADJUVANT” (priority 2022, published 2026).
Read-outs that look alike come from different tables or passages of the source.

How the values were obtained:
mouse splenocytes = assay: IFN-γ ELISpot in mouse splenocytes; format: cell-based, C57BL/6J mice
Experimental: Production of IFN-γ in response to infection or other stimuli is a hallmark of innate and adaptive immunity. To measure the effect of direct immune stimulation, freshly isolated splenocytes from three C57BL/6J mice were seeded in ELISpot plates pre-coated with anti-IFN-γ antibody (Mabtech, #3321-4AST-2) at 1 million splenocytes per well in OptiVitro® T Cell Serum-free Medium (Excellbio, Cat #TE000-N021). […] Detection of the IFN-γ spot-forming cells was performed according to the manufacture's protocol. Briefly, cells were removed from the ELISpot plates. After washing with PBS, the ELISpot plates were incubated with […] of the R4-6A2-biotin detection antibody for 2 hours at room temperature (RT) and then with streptavidin-ALP (1:1000) at RT for 1 hour. BCIP/NBT chromogen substrate solution was added to the plates until distinct spots emerged. The spots (IFN-γ-secreting cells) were counted using an AID ELISPOT reader.

NFκB [1] = assay: NFκB luciferase reporter gene assay in HeLa-NFκB luciferase reporter cell line; format: cell-based; settings: 16 h, 37 °C, luciferase/CTG normalized; read-out: NFκB-luc HeLa cells EC50
Experimental: The PKC activator compounds were evaluated for their effect on NFκB expression using a luciferase reporter gene expression system. (The indicators “K-101,” “K101” and “K-101A” may be used interchangeably in this disclosure and appended figures).
A HeLa-NFκB luciferase reporter cell line (Wuxi Biology) was used to assess a group of PKC activator compounds for their ability to activate NFκB-driven transcription. Two sets of cells at 20000 cells/well were plated, grown overnight, and then treated for 16 h at 37 °C with DMSO, 6 doses of each compound, or TNF-α (final concentration of 10 ng/mL, positive control) in triplicates. One set of cells was assayed for luciferase activity (Promega, Cat #E1500) and the other set was assayed to determine the number of viable cells (for cell number normalization) using CellTiter-Glo (CTG) kit (Promega, Cat #G7570) according to manufacture's procedures. Normalized data (luciferase value/CTG value) were analyzed using GraphPad Prism5 to calculate EC50 for each compound (see Table 3).

human PBMC cells = assay: cytokine/chemokine gene expression (TaqMan) in human PBMC; settings: 4 h
Experimental: Materials and methods: 100 million frozen human PBMC cells were purchased from Allcells (100 million/vial). The cells were thawed and recovered for one day before 1.5-1.8 million cells in 900 μl RPMI1640 with 10% heat-inactivated FBS were seeded in each well of 24-well plates. Various compounds in DMSO stock (500×) were diluted 50-fold with the same media to make 10× compound stock for most compounds. 1 μL of 5 mg/mL PMA was diluted to 99 μL of the media to make 50 μg/mL PMA. For PMA with ionomycin treatment condition, 1.5 μL of 50 μg/mL PMA and 3 μL of 500 μg/mL ionomycin were added to 145.5 μL of the media to make 10× compound stock. Sources of the compounds are as follows: PMA from Abcam (Abcam #ab120297); Ionomycin from Sigma (Sigma #I0634); Resiquimod from Sellect Chem. (Selleckchem #S8133); and LPS from Sigma (Sigma #L6143).
Each treatment condition was performed in duplicates. After treatment, mRNA was extracted from cells and samples from duplicates were combined for TaqMan gene expression assays (ThermoFisher) in triplicates. Expression of 19 genes (IL-1β, IL-2, IL-4, IL-6, IL-8, IL-10, IL-13, IL-18, IL-12p70/IL-12A, IL-12p40/IL-12B, IFN-α, IFN-γ, GM-CSF/CSF2, CCL2/MCP-1, MIP1a/CCL3, TNF-α, MX1, OAS1, ISG15) along with two housekeeping gene controls, 18S and GAPDH, was determined. Target gene expression in each sample was determined by relative quantification (RQ) using the comparative Ct (ΔΔCT) method. This method measures the Ct difference (ΔCT) between target gene and the housekeeping genes (18S & GAPDH), then compares the ΔCT values of treated samples to DMSO-treated control samples. The mean ΔCT value of the DMSO-treated control from two independent DMSO-treated control samples was used. The relative expression level of target gene was calculated by using the equation:
relative expression=2^−ΔΔCT

[2] = tested on: antigen-specific T cell responses; settings: Yan et al. 2010; cited from earlier work
DC cells = settings: Yan et al. 2010; cited from earlier work
[3] = tested on: antigen-specific antibody as well as T cell responses; settings: in vivo; Oh et al. 2014; cited from earlier work
NFκB [4] = settings: in vitro, TLR5-dependent and -independent; Oh et al. 2014; cited from earlier work
[5] = 0.03 μM, vs DMSO, 240 min, 0.03 µM
[6] = 0.10 μM, vs DMSO, 240 min, 0.1 µM

CC1=C[C@H]2[C@@]3(O)[C@H](C)C[C@]4(OC(=O)C(N)CCCCCCc5ccccc5)[C@H]([C@@H]3C=C(CO)C[C@]2(O)C1=O)C4(C)C (some centres unmarked)
IFN-γ secreting cells/million splenocytes (mouse splenocytes; 60 nM, 24 h, Mouse 1): 245 cells/million splenocytes | IFN-γ secreting cells/million splenocytes (mouse splenocytes; 60 nM, 24 h, Mouse 2): 137 cells/million splenocytes | IFN-γ secreting cells/million splenocytes (mouse splenocytes; 60 nM, 24 h, Mouse 3): 110 cells/million splenocytes | IFN-γ secreting cells/million splenocytes (mouse splenocytes; 200 nM, 24 h, Mouse 1): saturated | IFN-γ secreting cells/million splenocytes (mouse splenocytes; 200 nM, 24 h, Mouse 2): saturated | IFN-γ secreting cells/million splenocytes (mouse splenocytes; 200 nM, 24 h, Mouse 3): saturated | dose-response of IFN-γ production (mouse splenocytes; 60 and 200 nM, in words): a trend of dose-response | minimal effective concentration (mouse splenocytes; Splenocyte, mouse splenocytes, 24 h, read-out: concentration (as low as) at which IFN-γ production was stimulated): 0.06 µM | EC50 (NFκB [1]): 10 to 30 nM | ISG15 gene relative expression (human PBMC cells; 0.03 μM, vs DMSO): 0.97 | MX1 gene relative expression (human PBMC cells; 0.03 μM, vs DMSO): 0.65 | CCL2 gene relative expression (human PBMC cells; [5]): 4.55 | GM-CSF gene relative expression (human PBMC cells; [5]): 1.89 | IFN-α gene relative expression (human PBMC cells; [5]): 1.66 | IFNγ gene relative expression (human PBMC cells; [5]): 1.62 | IL-1β gene relative expression (human PBMC cells; [5]): 0.54 | IL-2 gene relative expression (human PBMC cells; [5]): 1.71 | IL-6 gene relative expression (human PBMC cells; [5]): 0.74 | IL-8 gene relative expression (human PBMC cells; [5]): 0.80 | IL-10 gene relative expression (human PBMC cells; [5]): 1.27 | IL-12p40 gene relative expression (human PBMC cells; [5]): 0.74 | IL-12p70 gene relative expression (human PBMC cells; [5]): 1.02 | IL-13 gene relative expression (human PBMC cells; [5]): 0.40 | IL-18 gene relative expression (human PBMC cells; [5]): 0.47 | MIP1a (CCL3) gene relative expression (human PBMC cells; [5]): 1.86 | OAS1 gene relative expression (human PBMC cells; [5]): 0.64 | TNF-α gene relative expression (human PBMC cells; [5]): 1.38 | CCL2 gene relative expression (human PBMC cells; [6]): 3.12 | GM-CSF gene relative expression (human PBMC cells; [6]): 7.74 | IFN-α gene relative expression (human PBMC cells; [6]): 0.73 | IFNγ gene relative expression (human PBMC cells; [6]): 3.47 | IL-1β gene relative expression (human PBMC cells; [6]): 1.58 | IL-2 gene relative expression (human PBMC cells; [6]): 7.65 | IL-4 gene relative expression (human PBMC cells; [6]): 1.61 | IL-8 gene relative expression (human PBMC cells; [6]): 0.53 | IL-10 gene relative expression (human PBMC cells; [6]): 0.48 | IL-12p70 gene relative expression (human PBMC cells; [6]): 0.93 | IL-13 gene relative expression (human PBMC cells; [6]): 47.45 | IL-18 gene relative expression (human PBMC cells; [6]): 0.09 | ISG15 gene relative expression (human PBMC cells; [6]): 1.16 | MIP1a (CCL3) gene relative expression (human PBMC cells; [6]): 2.39 | MX1 gene relative expression (human PBMC cells; [6]): 0.72 | OAS1 gene relative expression (human PBMC cells; [6]): 0.55 | TNF-α gene relative expression (human PBMC cells; [6]): 4.04 | fold induction at 0.3 µM (human PBMC cells; Homo sapiens, PBMC, read-out: CCL2 gene relative expression, 0.3 μM, 4 h, vs DMSO): 2.09 | fold induction at 0.3 µM (human PBMC cells; Homo sapiens, PBMC, read-out: GM-CSF gene relative expression, 0.3 μM, 4 h, vs DMSO): 10.5 | fold induction at 0.3 µM (human PBMC cells; Homo sapiens, PBMC, read-out: IFN-α gene relative expression, 0.3 μM, 4 h, vs DMSO): 0.95 | fold induction at 0.3 µM (human PBMC cells; Homo sapiens, PBMC, read-out: IFNγ gene relative expression, 0.3 μM, 4 h, vs DMSO): 18.6 | fold induction at 0.3 µM (human PBMC cells; Homo sapiens, PBMC, read-out: IL-1β gene relative expression, 0.3 μM, 4 h, vs DMSO): 1.53 | fold induction at 0.3 µM (human PBMC cells; Homo sapiens, PBMC, read-out: IL-2 gene relative expression, 0.3 μM, 4 h, vs DMSO): 3.41 | fold induction at 0.3 µM (human PBMC cells; Homo sapiens, PBMC, read-out: IL-4 gene relative expression, 0.3 μM, 4 h, vs DMSO): 2.57 | fold induction at 0.3 µM (human PBMC cells; Homo sapiens, PBMC, read-out: IL-6 gene relative expression, 0.3 μM, 4 h, vs DMSO): 4.85 | fold induction at 0.3 µM (human PBMC cells; Homo sapiens, PBMC, read-out: IL-8 gene relative expression, 0.3 μM, 4 h, vs DMSO): 0.59 | fold induction at 0.3 µM (human PBMC cells; Homo sapiens, PBMC, read-out: IL-10 gene relative expression, 0.3 μM, 4 h, vs DMSO): 0.06 | fold induction at 0.1 µM (human PBMC cells; Homo sapiens, PBMC, read-out: IL-12p40 gene relative expression, 0.10 μM, 4 h, vs DMSO): 0.45 | fold induction at 0.3 µM (human PBMC cells; Homo sapiens, PBMC, read-out: IL-12p40 gene relative expression, 0.3 μM, 4 h, vs DMSO): 0.69 | fold induction at 0.3 µM (human PBMC cells; Homo sapiens, PBMC, read-out: IL-12p70 gene relative expression, 0.3 μM, 4 h, vs DMSO): 0.61 | fold induction at 0.3 µM (human PBMC cells; Homo sapiens, PBMC, read-out: IL-13 gene relative expression, 0.3 μM, 4 h, vs DMSO): 78.9 | fold induction at 0.3 µM (human PBMC cells; Homo sapiens, PBMC, read-out: IL-18 gene relative expression, 0.3 μM, 4 h, vs DMSO): 0.04 | fold induction at 0.3 µM (human PBMC cells; Homo sapiens, PBMC, read-out: ISG15 gene relative expression, 0.3 μM, 4 h, vs DMSO): 1.14 | fold induction at 0.3 µM (human PBMC cells; Homo sapiens, PBMC, read-out: MIP1a (CCL3) gene relative expression, 0.3 μM, 4 h, vs DMSO): 3.37 | fold induction at 0.3 µM (human PBMC cells; Homo sapiens, PBMC, read-out: MX1 gene relative expression, 0.3 μM, 4 h, vs DMSO): 0.57 | fold induction at 0.3 µM (human PBMC cells; Homo sapiens, PBMC, read-out: OAS1 gene relative expression, 0.3 μM, 4 h, vs DMSO): 0.42 | fold induction at 0.3 µM (human PBMC cells; Homo sapiens, PBMC, read-out: TNF-α gene relative expression, 0.3 μM, 4 h, vs DMSO): 4.13

CCC/C=C/C=C/C(=O)O[C@H]1/C(=C/C(=O)OC)C[C@H]2C[C@H]([C@@H](C)O)OC(=O)C[C@H](O)C[C@@H]3C[C@H](OC(C)=O)C(C)(C)[C@](O)(C[C@@H]4C/C(=C/C(=O)OC)C[C@H](/C=C/C(C)(C)[C@]1(O)O2)O4)O3 [Bryostatin]
antigen-specific T cell responses from a peptide-based vaccine [2]: stimulates an antigen-specific T cell responses | chemokine expression in DC cells (DC cells): induces chemokine expression in DC cells

CCCCCCCCCCCCCC(=O)O[C@@H]1[C@@H](C)[C@@]2(O)[C@@H](C=C(CO)C[C@]3(O)C(=O)C(C)=C[C@@H]23)[C@@H]2C(C)(C)[C@]12OC(C)=O [PMA, Phorbol 12-myristate 13-acetate]
antigen-specific antibody as well as T cell responses [3]: boosts antigen-specific antibody as well as T cell responses in vivo | PKC-dependent NFκB activation (NFκB [4]): induce PKC-dependent NFκB activation
